From patent US11661400B2, “NADPH oxidase inhibitors, pharmaceutical composition comprising the same, and application thereof” (TAIWANJ PHARMACEUTICALS CO., LTD., priority 2018, dated 2023)

Tests used:
[1] = biological target: T1, NOX1 (Homo sapiens, UniProt Q9Y5S8); assay: NOX1 HT29 cell-based assay (luminol/HRP luminescence); settings: HT29 cells, DMSO = 0%, GKT137831 = 100%; for inhibition at 0.1 µM / inhibition at 1 µM: HT-29; for inhibition at 0.1 µM: 100 nM
T1 construct: endogenous in cells; host or cells: HT29
T1 sequence (Q9Y5S8 1-564): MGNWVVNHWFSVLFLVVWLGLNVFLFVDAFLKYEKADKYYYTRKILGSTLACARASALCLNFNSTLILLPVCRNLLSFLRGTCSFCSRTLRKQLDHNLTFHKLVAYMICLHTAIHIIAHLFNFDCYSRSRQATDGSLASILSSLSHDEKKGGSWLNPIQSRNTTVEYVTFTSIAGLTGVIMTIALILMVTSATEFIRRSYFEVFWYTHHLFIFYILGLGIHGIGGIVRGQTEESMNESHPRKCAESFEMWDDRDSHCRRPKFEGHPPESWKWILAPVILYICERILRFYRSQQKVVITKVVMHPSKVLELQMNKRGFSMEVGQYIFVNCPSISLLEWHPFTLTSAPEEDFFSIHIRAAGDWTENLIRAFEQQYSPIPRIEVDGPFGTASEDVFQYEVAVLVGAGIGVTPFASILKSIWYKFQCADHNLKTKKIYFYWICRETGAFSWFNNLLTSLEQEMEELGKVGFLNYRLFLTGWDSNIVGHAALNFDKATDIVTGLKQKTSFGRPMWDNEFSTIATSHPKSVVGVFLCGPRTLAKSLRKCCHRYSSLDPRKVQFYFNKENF
T1 sequence (P13498 2-195 partner limits assumed): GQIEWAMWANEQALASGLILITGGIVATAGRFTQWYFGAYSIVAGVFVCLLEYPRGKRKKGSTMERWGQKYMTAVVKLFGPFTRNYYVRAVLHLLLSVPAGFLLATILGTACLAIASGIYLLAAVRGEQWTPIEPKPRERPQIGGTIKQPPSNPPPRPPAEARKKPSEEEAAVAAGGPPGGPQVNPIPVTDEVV
Procedure: NOX1 HT29 Cell-Based Assay:
HT29 cells were cultured in T75 flask (Corning) and when 70-80% confluence was reached, cells were trypsinized, harvested in HBSS and counted. 1-2×10^5 cells were dispensed into individual wells in 70 μl final volume (96-well plates, white Corning). Cells were treated for 30-60 mins at 37° C. with 10 μl of GKT137831, DMSO and test compounds from their respective assay plates. This will correspond to a final concentration of 100 nM, 1000 nM GKT137831 or test compounds, and 0.1% DMSO. 20 μL of a mixture containing 100 μM luminol plus 0.4 units of HRP (final concentration) was added. Luminescence was quantified using a SpectraMax i3 Multiplate reader (Molecular Devices, Sunnyvale, Calif., USA). As designed, compounds that inhibit NOX1 activity will reduce cellular ROS production, leading to reduced probe-ROS interactions and reduced well luminescence. Compounds were tested in duplicate at a concentration of 100 nM and 1000 nM. DMSO and GKT137831 wells were applied as negative and positive controls, and the activities measured were set to 0% and 100%, respectively.

[2] = biological target: T2, NOX2 (Homo sapiens, UniProt P04839); assay: NOX2 HL60 cell-based assay (PMA oxidative burst, L012 chemiluminescence); settings: DMSO-differentiated HL-60 cells, PMA-stimulated; for inhibition at 0.1 µM: HL-60, 100 nM; for inhibition at 1 µM: HL-60, 1000 nM
T2 construct: HL-60 cells, rich in NOX2 expression; endogenous in cells; host or cells: DMSO-differentiated HL-60
T2 sequence (P04839 2-570 limits assumed): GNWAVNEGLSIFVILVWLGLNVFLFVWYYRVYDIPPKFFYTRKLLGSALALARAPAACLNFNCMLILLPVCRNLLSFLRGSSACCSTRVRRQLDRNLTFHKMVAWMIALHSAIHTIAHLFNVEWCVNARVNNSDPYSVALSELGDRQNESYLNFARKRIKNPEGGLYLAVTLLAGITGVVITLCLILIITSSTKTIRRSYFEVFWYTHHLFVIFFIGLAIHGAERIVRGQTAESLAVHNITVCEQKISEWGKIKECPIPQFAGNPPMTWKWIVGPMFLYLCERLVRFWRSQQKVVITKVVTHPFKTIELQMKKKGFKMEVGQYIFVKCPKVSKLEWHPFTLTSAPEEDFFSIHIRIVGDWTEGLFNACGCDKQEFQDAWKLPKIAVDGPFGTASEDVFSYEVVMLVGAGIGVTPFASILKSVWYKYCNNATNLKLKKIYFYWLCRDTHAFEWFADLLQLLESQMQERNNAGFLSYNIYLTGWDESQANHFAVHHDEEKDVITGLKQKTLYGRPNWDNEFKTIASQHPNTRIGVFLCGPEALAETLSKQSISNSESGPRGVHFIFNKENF
T2 sequence (P13498 2-195 partner limits assumed): T1 sequence (P13498 2-195 partner limits assumed)
Procedure: NOX2 HL60 Cell-Based Assay:
HL-60 cells, rich in NOX2 expression, was stimulated to undergo oxidative burst by phorbol myristate acetate (PMA). The ROS produced during this process was measured using the O2^−-specific chemiluminescent probe L012. L012 was added to DMSO-differentiated HL-60 cell suspensions to a final concentration of 100 μM. Then, 80 μL aliquots of cell suspension (2.5×10^5 cells) were transferred to individual wells of a 96-well plate. Test compounds were directly added to the wells at the specified concentrations. Following a 30-60 mins incubation at 37° C. in the dark, the oxidative burst was initiated by the addition of 10 ng/mL PMA, and the chemiluminescence signal was recorded every 5 min over a period of 60 mins in a SpectraMax i3 Multiplate reader (Molecular Devices, Sunnyvale, Calif., USA). • NOX4 HEK293 Overexpression Cell-Based Assay: […]

[3] = biological target: T3, NOX4 (Homo sapiens, UniProt Q9NPH5); assay: NOX4 HEK293 overexpression cell-based assay (Amplex Red H2O2); settings: HEK293 cells stably overexpressing NOX4, DMSO = 0, GKT137831 = 100; for inhibition at 0.1 µM: HEK293, 100 nM; for inhibition at 1 µM: HEK293, 1000 nM
T3 construct: expressed in transfected cells
T3 sequence (Q9NPH5 1-578): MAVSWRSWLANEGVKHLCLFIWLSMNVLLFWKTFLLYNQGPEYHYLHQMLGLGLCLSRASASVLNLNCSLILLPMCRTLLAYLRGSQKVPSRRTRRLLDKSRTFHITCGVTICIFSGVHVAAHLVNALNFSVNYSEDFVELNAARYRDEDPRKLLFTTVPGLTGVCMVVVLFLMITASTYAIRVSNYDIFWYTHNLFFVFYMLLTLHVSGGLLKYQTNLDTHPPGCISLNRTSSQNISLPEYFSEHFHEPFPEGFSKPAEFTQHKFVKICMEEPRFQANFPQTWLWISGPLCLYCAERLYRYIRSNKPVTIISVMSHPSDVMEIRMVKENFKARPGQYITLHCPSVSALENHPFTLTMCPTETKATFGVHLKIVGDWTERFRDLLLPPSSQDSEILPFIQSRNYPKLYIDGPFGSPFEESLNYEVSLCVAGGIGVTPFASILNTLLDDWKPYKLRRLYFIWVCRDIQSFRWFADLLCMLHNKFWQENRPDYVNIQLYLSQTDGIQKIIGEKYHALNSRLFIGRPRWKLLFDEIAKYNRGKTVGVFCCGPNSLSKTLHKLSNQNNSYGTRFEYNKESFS
T3 sequence (P13498 2-195 partner limits assumed): T1 sequence (P13498 2-195 partner limits assumed)
Procedure: Extracellular H2O2 measurement using Amplex™ Red Hydrogen Peroxide/Peroxidase Assay Kit (Catalog number: A22188; Invitrogen, Carlsbad, Calif., USA) was used to detect extracellular H2O2 release by HEK293 cells stably overexpressing NOX4. NOX4 clonal cells in log-phase growth were trypsinized, washed, and dispersed thoroughly. Following trypsinization, the cells (3×10^4) were resuspended in 100 μL of 1× Krebs-Ringer phosphate glucose (KRPG) buffer containing various concentrations of GKT137831 or test compounds and incubated at 37° C. for 30 min. Cells were mixed with 100 μL of Amplex Red reagent solution containing 50 μM Amplex Red and 0.1 units/mL of HRP in KRPG buffer; each assay condition was evaluated induplicate. The samples were incubated at 37° C. for 90 mins in the dark, and then centrifuged at 2,500 g for 5 mins. The supernatants were loaded to a 96 well plate, and then measured using a SpectraMax i3 Multiplate reader (Molecular Devices, Sunnyvale, Calif., USA) at 530 nm excitation and 590 nm emission respectively. DMSO and GKT137831 wells were applied as negative and positive controls, and the activities measured were set to 0 and 100, respectively.

Row | SMILES | inhibition at 0.1 µM [1] [%] | inhibition at 1 µM ([1]; 1000 nM) [%] | inhibition at 0.1 µM [2] [%] | inhibition at 1 µM [2] [%] | inhibition at 0.1 µM [3] [%] | inhibition at 1 µM [3] [%] | % Inhibition NOX1 ([1]; 1000 nM) | % Inhibition NOX2 ([2]; 100 nM) | % Inhibition NOX2 ([2]; 1000 nM) | % Inhibition NOX4 ([3]; 100 nM, 0.1 µM) | % Inhibition NOX4 ([3]; 1000 nM) | % Inhibition NOX2 ([2]; 100 nM, methanesulfonate, 0.1 µM) | % Inhibition NOX2 ([2]; 1000 nM, methanesulfonate, 1 µM) | % Inhibition NOX4 ([3]; 100 nM) | % Inhibition NOX4 ([3]; 1000 nM, 1 µM)
1 | COc1cc2[nH]c(-c3ccccc3C(F)(F)F)c(O)c(=O)c2cc1OC [Compound 44, 3-hydroxy-6,7-dimethoxy-2-(2-(trifluoromethyl)phenyl)quinolin-4(1H)-one methanesulfonate] |  |  |  |  |  |  |  |  |  |  |  | C (the percent of inhibition of NOX by the compounds ranges from 2000 to 49%) | A (the percent of inhibition of NOX by the compounds is larger than or equals to 80%) |  | 
2 | COc1ccccc1-c1[nH]c2c(OC)c(OC)c(OC)cc2c(=O)c1O [Compound 19] | ≥ 80 | ≥ 80 | ≤ 19 | 50 to 79 | ≤ 19 | 50 to 79 |  |  |  |  |  |  |  |  | 
3 | COc1cccc(-c2[nH]c3cc(OC)c(OC)cc3c(=O)c2O)c1 [Compound 4] | 50 to 79 | ≥ 80 | ≤ 19 | 50 to 79 | ≤ 19 | ≥ 80 |  |  |  |  |  |  |  |  | 
4 | COc1cc2[nH]c(-c3ccccc3Cl)c(O)c(=O)c2cc1OC [Compound 9] | ≥ 80 | ≥ 80 | ≤ 19 | ≥ 80 | 50 to 79 |  |  |  |  |  |  |  |  |  | A (the percent of inhibition of NOX by the compounds is larger than or equals to 80%)

More lines, main results first:

Row | inhibition at 0.1 µM [1] [%] | inhibition at 1 µM ([1]; 1000 nM) [%] | inhibition at 0.1 µM [2] [%] | inhibition at 1 µM [2] [%] | inhibition at 0.1 µM [3] [%] | inhibition at 1 µM [3] [%] | SMILES | % Inhibition NOX1 ([1]; 1000 nM) | % Inhibition NOX2 ([2]; 100 nM) | % Inhibition NOX2 ([2]; 1000 nM) | % Inhibition NOX4 ([3]; 100 nM, 0.1 µM) | % Inhibition NOX4 ([3]; 1000 nM) | % Inhibition NOX2 ([2]; 100 nM, methanesulfonate, 0.1 µM) | % Inhibition NOX2 ([2]; 1000 nM, methanesulfonate, 1 µM) | % Inhibition NOX4 ([3]; 100 nM) | % Inhibition NOX4 ([3]; 1000 nM, 1 µM)
5 | ≤ 19 |  |  |  |  |  | COc1cc2[nH]c(-c3ccc(Cl)cc3)c(O)c(=O)c2cc1OC [Compound 45] | A (the percent of inhibition of NOX by the compounds is larger than or equals to 80%) | D (the percent of inhibition of NOX by the compounds is smaller than or equals to 19% o) | D (the percent of inhibition of NOX by the compounds is smaller than or equals to 19% o) | C (the percent of inhibition of NOX by the compounds ranges from 2000 to 49%) | B (the percent of inhibition of NOX by the compounds ranges from 50% o to 79% o) |  |  |  | 
6 | ≤ 19 | ≥ 80 | 50 to 79 | ≥ 80 | ≤ 19 | 50 to 79 | COc1cc2[nH]c(-c3ccccc3)c(N)c(=O)c2cc1OC [Compound 37] |  |  |  |  |  |  |  |  | 
7 | 50 to 79 | ≥ 80 | ≤ 19 | 50 to 79 | ≤ 19 |  | COc1ccccc1-c1[nH]c2cccc(Br)c2c(=O)c1O [Compound 25] |  |  |  |  | C (the percent of inhibition of NOX by the compounds ranges from 2000 to 49%) |  |  |  | 
8 | ≥ 80 | ≥ 80 | ≤ 19 | 50 to 79 |  | ≥ 80 | CCOc1ccccc1-c1[nH]c2cc(OC)c(OC)cc2c(=O)c1O [Compound 21] |  |  |  |  |  |  |  | C (the percent of inhibition of NOX by the compounds ranges from 2000 to 49%) | 
9 | ≤ 19 | ≤ 19 | ≤ 19 | ≤ 19 | ≤ 19 | ≤ 19 | COc1ccc2[nH]c(C(=O)c3ccccc3OC)c(O)c(=O)c2c1 [Compound 34, 3-hydroxy-6-methoxy-2-(2-methoxybenzoyl) quinolin-4(1H)-one] |  |  |  |  |  |  |  |  | 
10 | ≤ 19 | ≥ 80 | ≤ 19 | ≤ 19 | ≤ 19 | 50 to 79 | COc1ccc(-c2c(O)c(=O)c3ccccc3n2C)cc1 [Compound 39] |  |  |  |  |  |  |  |  | 
11 | ≥ 80 | ≥ 80 |  | ≥ 80 |  | ≥ 80 | CCCOc1ccccc1-c1[nH]c2cc(OC)c(OC)cc2c(=O)c1O [Compound 22] |  | C (the percent of inhibition of NOX by the compounds ranges from 2000 to 49%) |  |  |  |  |  | C (the percent of inhibition of NOX by the compounds ranges from 2000 to 49%) | 
